Earlier results, collected in patent US20080104001A1, “ALGORITHM FOR ESTIMATION OF BINDING EQULIBRIA IN INCLUSION COMPLEXATION, HOST COMPOUNDS IDENTIFIED THEREBY AND COMPOSITIONS OF HOST COMPOUND AND PHARMACEUTICAL” (priority 2006, published 2008).

How the values were obtained:
[1] = by itself, without cyclodextrin
[2] = training set; published stability constants (Connors, 1995)

Compound | aqueous solubility [1] | Log K(1:1) [2]
CCC(C)n1ncn(-c2ccc(N3CCN(c4ccc(OCC5COC(Cn6cncn6)(c6ccc(Cl)cc6Cl)O5)cc4)CC3)cc2)c1=O (centres unmarked) [itraconazole] | less than 0.1 microgram/mL | –
CCCOC(=O)c1ccc(O)cc1 [propylparaben] | – | 2.97
c1cc2ccc3cccc4ccc(c1)c2c34 [pyrene] | – | 2.45
O=C(O)c1ccccc1O [salicylic-acid] | – | 2.63
ClC(Cl)(Cl)Cl [tetrachloromethane] | – | 2.18
